Reference: patent US11369695B2, “Fat droplets in retina and optic nerve as a diagnostic marker for neurodegeneration and glaucoma in humans” (The Jackson Laboratory, priority 2016, dated 2022)
Entries after “also recorded” stand apart in the source; their conditions may differ.

Columns and labels:
[1] = tested on: DBA/2J (D2) mice; conditions: cited from earlier work
[2] = tested on: DBA/2J (D2) mice; conditions: cited from earlier work; remark: listed apart in the source
[3] = tested on: mice; experiment: PQQ tolerability in mice; type: in vivo, mouse
Protocol: With regard to PQQ, it is tolerated at least at 2,000 mg/kg/day in mice. The neuroprotective effect provided by PQQ is about 20-2,000 mg/kg/day, about 100-1,000 mg/kg/day, or about 500 mg/kg/day in mice.

[4] = tested on: lipid droplets in DBA/2J retinas; experiment: Lipid droplet formation in the inner retina by Oil Red O staining; type: in vivo, mouse; conditions: 12 month of age DBA/2J mice, versus untreated
Protocol: Lipid droplet formation in the inner retina was assessed by Oil Red O staining, which brightly stained neutral triglycerides and lipids. Following intraocular pressure elevation, lipid droplets were present within the inner retina of DBA/2J mice. At 6 months of age, the majority of retinas were negative for lipid droplets. By 9 months of age, small and dispersed lipid droplets were present in some eyes. By 12 months of age, lipid accumulation was present in the majority of eyes in retinas that had not yet developed glaucoma (no glaucoma). In eyes that had developed severe glaucoma, lipid droplets were present across the retina in the majority of eyes. GCL=ganglion cell layer (retinal ganglion cell bodies), IPL=inner plexiform layer (retinal ganglion cell dendrites and synapses). Haematoxylin (dark blue/purple) is a general marker of cell nuclei used as a counter-stain.
Lipid droplet formation was assessed in retinas from nicotinamide-treated DBA/2J mice. […] GCL=ganglion cell layer (retinal ganglion cell bodies), IPL=inner plexiform layer (retinal ganglion cell dendrites and synapses). Haematoxylin (dark blue/purple) is a general marker of cell nuclei used as a counter-stain.
Again, lipid/fat droplet formation in the inner retina was assessed by Oil Red O staining. […]
Lipid droplet formation was assessed in retinas from nicotinamide-treated DBA/2J mice.

[5] = tested on: DBA/2J (D2) mice; experiment: Glaucomatous neurodegeneration in D2 mice at 12 months (optic nerve damage grading, soma loss, visual function, axonal transport); type: in vivo, mouse; conditions: for protection from developing glaucoma / optic nerve degeneration: NAM 550 mg/kg/d in drinking water, assessed at 12 months
Protocol: From left, DBA/2J control—D2 mice on standard drinking water; Nicotinamide)(NAM^Lo) early start—D2 mice on standard drinking water supplemented with 550 mg/kg/day NAM from 6 months of age (pre-disease); Nicotinamide)(NAM^Lo) late start—D2 mice on standard drinking water supplemented with 550 mg/kg/day NAM from 9 months of age (during disease); Nicotinamide (NAM^Hi) early start—D2 mice on standard drinking water supplemented with 2,000 mg/kg/day NAM from 6 months of age (pre-disease); Pyruvate—D2 mice on standard drinking water supplemented with 500 mg/kg/day pyruvate from 6 months of age (pre-elevated IOP); NAM^Lo+Pyruvate—D2 mice on standard drinking water supplemented with 550 mg/kg/day NAM+500 mg/kg/day pyruvate from 6 months of age (pre-disease); D2.Wld^S—D2 mice carrying the Wld^S transgene (altered NMNAT enzyme that enhances enzymatic activity) on standard drinking water; D2.Wld^S+Nicotinamide)(NAM^Lo)—D2 mice carrying the Wld^S transgene (altered NMNAT enzyme) on standard drinking water with 550 mg/kg/day NAM from 6 months of age (pre-elevated IOP).
To determine the fate of the retinal ganglion cells following prolonged period of elevated IOP in the D2 mice, we used PPD staining of the optic nerve to reveal the extent of retinal and/or optic nerve neurodegeneration, as PPD darkly stains the axoplasm of dead/dying axons.
For this purpose, we distinguished optic nerves as having one of three levels of damage: no glaucoma, where there is <5% axon loss in the optic nerve, these nerves are indistinguishable from young controls; moderate glaucoma, with […], and evidence of darkly stained axons; or severe glaucoma, with >50% axon loss, and typically accompanied by gliosis/gliotic scarring.
We conducted this in vivo experiment using a large cohort of D2 mice. In this experiment, optic nerves were classified into three damage levels: NO (no glaucoma), MOD (moderate damage), and SEV (severe damage).
Experimental D2 mice were divided into the following groups and were given:
W=water (standard mouse water)
NAM or NAM^Lo=550 mg/kg/d NAM in drinking water
Early=early start=pre-glaucoma=6-month of age (i.e. prophylactic)
Late=late start=during glaucoma=9-month of age (when mice already have high IOP, i.e. interventional, and more relative to human glaucoma)
Mice were then assessed at 12-month for optic nerve damage, soma loss, visual function, and axonal transport (data not shown).

[6] = tested on: retinal ganglion cells; experiment: Retinal ganglion cell analyses in NAM-treated D2 mice (data not shown); type: in vivo, mouse
Description: In addition, many ocular and neurodegenerative diseases occur in the elderly due to age-dependent molecular chances that increase susceptibility to damage. […] Furthermore, axonal degeneration and somal shrinkage may represent common components in some neurodegenerative diseases. NAM prevents these changes based on the data above at least in glaucoma treatment.

[7] = tested on: NAD levels; experiment: NAD levels in NAM-treated D2 mice; type: in vivo, mouse; conditions: NAM 550 mg/kg/d in drinking water
[8] = tested on: DBA/2J (D2) mice; experiment: Intraocular pressure (IOP) in D2 mice; type: in vivo, mouse; conditions: NAM in drinking water (data not shown)
Description: Following the onset of iris disease around 6 months of age, intraocular pressure began to increase (FIG. 2). A typical “normal” IOP in a D2 mouse eye is ˜13 mmHg, which increases progressively from 6 to 12 months, to values that can typically exceed 20 mmHg. By 9 months of age, IOP was/had been elevated in the majority of the eyes of the D2 mice. IOP increases in D2 eyes were age-related and asynchronous, as well as being highly variable. In our colony, females tend to have higher/early onsets of elevated IOP (FIG. 2). […] Importantly, NAM was protective both prophylactically (starting at 6-month, early start; prior to IOP elevation in the vast majority of eyes in the colony), and as an intervention (starting at 9-month, late start; when the majority of eyes have had continuing IOP elevation). This signifies that NAM is able to both prevent neuronal injury from occurring as well as limiting neuronal injury to already insulted neurons (FIG. 6). This is important for human disease where treatment would only start once a disease has become symptomatic and thus detectable.

CC(C)(C)NC[C@H](O)COc1nsnc1N1CCOCC1 [timolol]
risk of developing neurodegeneration after topical administration [1]: reduces the risk of developing neurodegeneration
IOP after topical administration [2]: lowers IOP

CC(C)OC(=O)CCC/C=C\C[C@@H]1[C@@H](CC[C@@H](O)CCc2ccccc2)[C@H](O)C[C@@H]1O [Latanoprost]
risk of developing neurodegeneration after topical administration [1]: reduces the risk of developing neurodegeneration
IOP after topical administration [2]: lowers IOP

CC12CC3CC(C)(C1)CC(N)(C3)C2 [memantine]
risk of developing neurodegeneration after topical administration [1]: reduces the risk of developing neurodegeneration
IOP after topical administration [2]: lowers IOP

O=C(O)c1cc(C(=O)O)c2c(n1)C(=O)C(=O)c1cc(C(=O)O)[nH]c1-2 [PQQ, Pyrroloquinoline Quinone]
tolerated dose [3]: ≥ 2,000 mg/kg/day

NC(=O)c1cccnc1 [NAM, nicotinamide]
lipid droplet accumulation in retinas [4]: completely prevented
protection from developing glaucoma / optic nerve degeneration [5]: protect the D2 mice from all detectable signs of glaucoma through 12 months; also recorded: robustly protected D2 mice from developing glaucoma
protection from developing glaucoma / optic nerve degeneration ([5]; listed as nicotinamide): protects against optic nerve degeneration
glaucoma in the majority of the treated eyes, including PERG ([5]; NAM administration): completely prevents glaucoma
protection from glaucoma, prophylactic ([5]; NAM early start at 6-month, prior to IOP elevation): protects against glaucomatous neurodegeneration prophylactically; also recorded: protective
protection from glaucoma, as an intervention ([5]; NAM late start at 9-month, continuing IOP elevation): protective
early synapse loss ([6]; data not shown): protects early synapse loss
formation of dysfunctional mitochondria with abnormal cristae ([6]; data not shown): inhibits the formation of dysfunctional mitochondria with abnormal cristae
retinal ganglion cell dysfunction and degeneration ([6]; data not shown): robustly prevent retinal ganglion cell dysfunction and degeneration
age-related gene expression / molecular changes in RGCs ([6]; gene expression, data not shown): prevents age-related gene expression In RGCs; also recorded: prevents age-related molecular changes
axonal degeneration and somal shrinkage ([6]; glaucoma): prevents axonal degeneration and somal shrinkage
PARP activation ([6]; immunostaining, data not shown): decreases PARP activation
molecular signs of glaucoma ([6]; immunostaining, data not shown): prevents molecular signs of glaucoma
decline of NAD levels [7]: prevent the decline of NAD levels
effect on IOP [8]: did not alter IOP
